Experiments:
[1] = Effect of UVB radiation on stability of CoQ10 in PBS buffer (HPLC); assay type: physicochemical
Protocol: (§1) HPLC Methods. To measure CoQ10 levels in tissue culture medium, an appropriate high performance liquid chromatography (“HPLC”) method had to be established.
(§2) For the instant examples, a reliable HPLC method was established for CoQ10 using an isochratic method with a mobile phase of 85% methanol and 15% hexane. CoQ10 was detected at 275 nm.
(§3) HPLC Analysis of CoQ10. The amount of CoQ10 remaining in degradation experiments below were determined by High Pressure Liquid Chromatography (HPLC). The column used was a Microsorb C18 reverse phase column (15 cm×0.46 cm), the mobile phase consisted of 85% methanol and 15% hexane at a flow rate of 1 ml/minute and CoQ10 was detected at […]. The instrument used was a HP 1090 gradient HPLC system with photodiode array detector and autosampler.
(§4) Methods and Materials. The following experiment involved examining the effect of ultraviolet radiation (“UVR”) on levels of CoQ10 in culture medium. More specifically, ultraviolet-B (“UVB,” which is ultraviolet radiation ranging from about 290 nm to about 320 nm) dose-response studies were conducted on various concentrations of CoQ10 placed in either PBS buffer or into culture media. Doses of UVB ranged from 50 mJ to 200 mJ. In the culture media, 10 μm of CoQ10 was placed in a fibroblast culture for 24 hours.

[2] = Effect of UVB radiation on stability of CoQ10 in culture with fibroblasts (HPLC); assay type: physicochemical; conditions: fibroblast culture, 10 μM CoQ10, 24 hours
Protocol: as §1, §2, §3, §4

MMP-1 [3] = test: UV-induced MMP-1 in dermal fibroblasts (ELISA); assay type: cell-based, human; conditions: 10 micromolar, 50 mJ UV, 24 hours
Excerpt: (§5) Methods and Materials. The following experiment involved examining the effect of CoQ10 on UVR-induced inflammatory mediators in human dermal fibroblasts. That is, because skin aging is known to be accelerated by inflammatory cytokines produced in the skin by UVR, this experiment assessed the ability of CoQ10 to inhibit the production of the inflammatory mediators produced in human dermal fibroblasts in response to either UVB radiation or to stimulation by IL-1, a pro-inflammatory cytokine produced in keratinocytes by UVR.
(§6) The dose of UV for stimulating the production in fibroblasts of each of the inflammatory mediators—PGE-2, IL-6, IL-8, and the matrix metalloproteinase (“MMP-1”)—was 50 mJ.
(§7) The cells were isolated and cultured as follows. […]
(§8) For the experiments, cells were seeded into 12 well culture dishes in complete growth medium at a density of 10^5 cells/well and allowed to attach overnight. […] Cells were incubated for 24 hours at 37° C., at which time the media was removed for assay and the cells counted. […]

IL-6 = test: UV-induced IL-6 in dermal fibroblasts (ELISA); assay type: cell-based, human; conditions: 10 micromolar, 24 hours
Excerpt: as §5, §6, §7, §8

PGE-2 [4] = test: UV-induced PGE-2 in dermal fibroblasts (ELISA); assay type: cell-based, human; conditions: UVB doses of 75 mJ, 100 mJ and 125 mJ; 10 μM
Excerpt: as §5, with “UVR. […]” for “UVR.”
The cells were isolated and cultured as follows. The dermal fibroblasts were isolated from human neonatal foreskin and cultured in Dulbecco's modified eagle media with L-glutamine and 4.5 mM glucose and without sodium pyruvate (“DMEM”) (available from Fisher Scientific, Pittsburgh, Pa.) containing 5% horse serum (available from Hyclone, Logan, Utah), 5% fetal bovine serum (available from Hyclone), and penicillin/streptomycin (100 U/100 μg/ml). Cell cultures were grown at 37° C. in a humidified CO2 incubator (5% CO2). […]
as §8

PGE-2 [5] = test: IL-1-induced PGE-2 in dermal fibroblasts; assay type: cell-based, human; conditions: 24 hours
Protocol: The cells were isolated and cultured as follows. The dermal fibroblasts were isolated from human neonatal foreskin and cultured in Dulbecco's modified eagle media with L-glutamine and 4.5 mM glucose and without sodium pyruvate (“DMEM”) (available from Fisher Scientific, Pittsburgh, Pa.) containing 5% horse serum (available from Hyclone, Logan, Utah), 5% fetal bovine serum (available from Hyclone), and penicillin/streptomycin (100 U/100 μg/ml). Cell cultures were grown at 37° C. in a humidified CO2 incubator (5% CO2). Cells were passaged prior to confluence by removing cells with a trypsin/EDTA solution, followed by centrifugation and re-seeding.
as §8, with “overnight. The medium was then replaced with PBS for irradiation. A bank of two commercially available FS20 lamps were used for irradiation of cells.” for “overnight.”
The impact of CoQ10, colorless carotenoids, and a combination of both on PGE-2 in fibroblasts stimulated with IL-1 was examined. […] All of the plates were then incubated for 24 hours and then the media was removed from culture and cells counted.

MMP-1 [6] = test: IL-1-induced MMP-1 in dermal fibroblasts (ELISA); assay type: cell-based, human; conditions: Example 3; CoQ10 10 μM, 24 hours
[7] = Degradation by hydroxyl radicals from the Fenton reaction (HPLC); assay type: physicochemical; conditions: room temperature, one hour
Protocol: as §3
Methods and Materials. The following experiment examined the effect of the hydroxyl radical on CoQ10. The hydroxyl radical is a reactive oxygen species (“ROS”) produced in the human body. The radical is generated by the reaction of iron with hydrogen peroxide (commonly called the Fenton reaction).
For this experiment, CoQ10 was prepared in a solution of chloroform/ethanol (1:1) at a concentration of 10 micrograms/ml. The Fenton reaction was then initiated by the addition of hydrogen peroxide and iron (III) chloride and allowed to proceed at room temperature for one hour, at which time samples were injected on HPLC.

[8] = Oxidation of CoQ10 by sodium hypochlorite, with or without lycopene (HPLC); assay type: physicochemical
Protocol: as §3
Methods and Materials. The following experiment examined the effect of sodium hypochlorite on CoQ10.
For this experiment, CoQ10 was prepared in HPLC “mobil phase” (methanol:hexane) and incubated with different concentrations of sodium hypochlorite prepared in water/methanol. The reaction was allowed to proceed for up to 30 minutes, at which time samples were injected on HPLC.
The stock lycopene was 10 mg/ml in soybean oil. It was diluted into toluene and used in the reaction at 0.1% lycopene. To allow the CoQ10, hypochlorite aqueous solution and lycopene to react, a detergent was used to bring the polar and nonpolar phases together. The incubation lasted for 30 minutes.

[9] = Oxidation of CoQ10 by 0.03% hypochlorite, with lycopene or colorless carotenoids (HPLC); assay type: physicochemical; conditions: Example 7, 1.5 hours
Protocol: as §3
Methods and Materials. The following experiment was a comparison of the impact that colorless carotenoids or lycopene have on CoQ10 when CoQ10 is exposed to hypochlorite oxidation.
695 μg/ml of CoQ10 was prepared in chloroform/ethanol (1:1). The calculated amounts of phytoene and phytofluene used in the study was 0.0142% and 0.0012%, respectively. The calculated amount of lycopene was 2 mg/ml in chloroform. Four plates of cells were prepared and allowed to attach overnight as described above. CoQ10 was then added to each of the plates. Further, lycopene was added to one of the plates, and the carotenoids were added to another. Three plates (one of the plates containing only CoQ10 was treated as a control) were then incubated with 0.03% hypochlorite (“HOCL”) for 1.5 hours. Then the samples were removed and assayed by HPLC to determine CoQ10 levels.

[10] = Oxidation of CoQ10 by potassium hydroxide, with or without colorless carotenoids (HPLC); assay type: physicochemical; conditions: 600 μM CoQ10, 1 mM KOH, 30 minutes, room temperature
Protocol: as §3
Methods and Materials. The following experiment examined whether colorless carotenoids could protect CoQ10 from potassium hydroxide oxidation.
600 μM of CoQ10 was prepared in chloroform stock. 500 μg/ml of the colorless carotenoids was prepared in DMSO. The calculated amount of potassium hydroxide (“KOH”) was 1 mM. Three plates of cells were prepared and allowed to attach overnight as described above. CoQ10 was then added to each of the plates. Further, KOH was added to two of the plates (one was maintained as a control containing only CoQ10). Further, the carotenoids were added to one of the plates containing KOH. Reactions were performed in a total volume of 1 ml. The cells containing KOH were incubated for 30 minutes at room temperature with the KOH. Then the samples were removed and assayed by HPLC to determine CoQ10 levels.

[11] = Solubility of CoQ10 in solvents compatible with cultured cells; assay type: physicochemical
Excerpt: Because of the very poor solubility of CoQ10 in any solvent that is compatible with cultured cells, 10 μm of CoQ10 was the maximum final concentration that could be used in culture medium.

stability of CoQ10 to UVB ([1]; UVB doses 50 mJ to 200 mJ) | decrease in the concentration of CoQ10 ([1]; high UVB doses, within experimental error) | amount of CoQ10 after UVB radiation [2] | abundance or structure after the Fenton reaction ([7]; 10 micrograms/ml in chloroform/ethanol (1:1)) | loss of CoQ10 caused by sodium hypochlorite ([8]; Example 5, methanol:hexane, up to 30 minutes) | loss of CoQ10 caused by hypochlorite ([9]; 695 μg/ml CoQ10, 0.03% hypochlorite) | loss of CoQ10 due to oxidation by potassium hydroxide [10] | solubility ([11]; any solvent compatible with cultured cells) | maximum final concentration that could be used in culture medium ([11]; culture medium) | reduction of amount by the Fenton reaction ([7]; hydrogen peroxide and iron (III) chloride) | SMILES | level of UVR-induced MMP1 (MMP-1 [3]) | level of IL-6 induced in UVR-treated fibroblasts (IL-6) | effect on levels of PGE-2 after UVB irradiation (PGE-2 [4]) | IL-1 induction of PGE-2 (PGE-2 [5]; Example 2, 10 micromolar, IL-1 100 picograms/ml) | inhibition at 10 µM (PGE-2 [5]; Homo sapiens, Fibroblast, Example 3, CoQ10 10 μM, colorless carotenoid 15 micrograms/ml, read-out: inhibition of the IL-1 induction of PGE-2) | blocking the IL-1 induction in MMP-1 (MMP-1 [6]) | oxidation of CoQ10 by hypochlorite in the presence of the carotenoid ([8]; Example 6, 0.1% lycopene, detergent, 30 minutes) | oxidation of CoQ10 by hypochlorite in the presence of the carotenoid ([9]; 0.03% hypochlorite, lycopene 2 mg/ml, or phytoene 0.0142% and phytofluene 0.0012%)
exhibited stability | < 10 | generally unaffected | did not cause a reduction | 50% | 60% | 80% | very poor | 10 μm |  | COC1=C(OC)C(=O)C(C/C=C(\C)CC/C=C(\C)CC/C=C(\C)CC/C=C(\C)CC/C=C(\C)CC/C=C(\C)CC/C=C(\C)CC/C=C(\C)CC/C=C(\C)CCC=C(C)C)=C(C)C1=O [CoQ10, coenzyme Q10] | back to near control levels | markedly lowered | only a small inhibitory effect | significant reduction | 16% | ineffective |  | 
 |  |  |  |  |  |  |  |  | 50% | CC(C)=CCC/C(C)=C/C=C/C(C)=C/C=C/C(C)=C/C=C/C=C(C)/C=C/C=C(C)/C=C/C=C(\C)CCC=C(C)C [lycopene] |  |  |  |  |  |  | significantly reduced | caused a reduction in oxidation
